Laboratory results: patent publication US6022885A, “Pyrrolidine and thiazole derivatives with antibacterial and . metallo-.beta-lactamase inhibitory properties” (SmithKline Beecham p.l.c., priority 1995, dated 2000)
Read-outs that look alike come from different tables or passages of the source.

What was measured:
[1] = molecular target: B. fragilis CfiA metallo-β-lactamase (Bacteroides fragilis, UniProt P25910); experiment: I50 screen, nitrocefin reporter substrate; type: biochemical; settings: 25 mM PIPES pH 7, 37° C., nitrocefin 91 μM, 5 minute preincubation, Zn^2+ 100 μM
B. fragilis CfiA metallo-β-lactamase, sequence (P25910 19-249): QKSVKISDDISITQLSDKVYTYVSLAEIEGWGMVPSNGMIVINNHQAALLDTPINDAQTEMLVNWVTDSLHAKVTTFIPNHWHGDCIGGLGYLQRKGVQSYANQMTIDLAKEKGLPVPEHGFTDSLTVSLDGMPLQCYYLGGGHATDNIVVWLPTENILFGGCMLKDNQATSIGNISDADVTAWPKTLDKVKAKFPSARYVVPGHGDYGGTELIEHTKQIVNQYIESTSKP
Procedure: (§1) The inhibitory activity of the compounds of the invention was measured in 25 mM PIPES pH 7 buffer at 10 concentrations (1000, 333, 111, 37, 12.3, 4.1, 1.4 0.46, 0.15 and 0.05 μM) at 37° C. using nitrocefin (91 μM, final concentration) as the reporter substrate. The assays were performed with a 5 minute preincubation of enzyme and inhibitor and were conducted in the presence of added zinc sulphate (Zn^2+ 100 μM, final concentration). The methodology is described in detail in the following references: Payne et al (1991), J. Antimicrob. Chemother., 28:255; Payne et al (1994), Antimicrob. Agents and Chemother., 38:767.

[2] = molecular target: T1, Xanthomonas maltophilia L-1 metallo-β-lactamase (Stenotrophomonas maltophilia, UniProt P52700); experiment: I50 screen, nitrocefin reporter substrate; type: biochemical; settings: 25 mM PIPES pH 7, 37° C., nitrocefin 91 μM, 5 minute preincubation, Zn^2+ 100 μM
T1 construct: nitrocefin assay with added zinc
T1 sequence (P52700 34-290): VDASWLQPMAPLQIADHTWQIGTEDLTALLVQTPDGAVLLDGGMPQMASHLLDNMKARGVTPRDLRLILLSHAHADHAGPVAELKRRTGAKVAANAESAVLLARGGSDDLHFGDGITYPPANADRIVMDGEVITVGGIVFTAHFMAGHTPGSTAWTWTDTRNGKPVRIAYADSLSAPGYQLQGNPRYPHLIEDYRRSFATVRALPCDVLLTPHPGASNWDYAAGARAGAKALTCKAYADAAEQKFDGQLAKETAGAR
Procedure: as §1

[3] = molecular target: T2, Bacillus cereus II metallo-β-lactamase (Bacillus cereus, UniProt P04190); experiment: I50 screen, nitrocefin reporter substrate; type: biochemical; settings: 25 mM PIPES pH 7, 37° C., nitrocefin 91 μM, 5 minute preincubation, Zn^2+ 100 μM
T2 construct: nitrocefin assay with added zinc
T2 sequence (P04190 31-257): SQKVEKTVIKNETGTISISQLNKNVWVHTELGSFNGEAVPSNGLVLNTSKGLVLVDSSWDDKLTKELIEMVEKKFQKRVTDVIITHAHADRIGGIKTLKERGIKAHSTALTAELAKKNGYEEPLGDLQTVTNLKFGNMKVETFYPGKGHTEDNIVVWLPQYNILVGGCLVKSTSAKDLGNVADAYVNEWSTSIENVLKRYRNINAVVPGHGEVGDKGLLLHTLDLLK
Procedure: as §1

B. fragilis 262 = experiment: Antibacterial activity (MIC) alone and in combination with carbapenem antibiotics, B. fragilis 262; type: cell-based, Bacteroides fragilis
Text: (§2) Antibacterial activity of compounds of the invention in combination with carbapenem antibiotics against strains of Bacteroides fragllis which produce metallo-β-lactamase:
(§3) [MIC =minimum inhibitory concentration (μg/ml)]

B. fragilis 460 = experiment: Antibacterial activity (MIC) alone and in combination with carbapenem antibiotics, B. fragilis 460; type: cell-based, Bacteroides fragilis
Text: as §2, §3

[4] = read-out: I50 values against B. fragilis CfiA metallo-β-lactamase
[5] = I50 values against B. fragilis CfiA metallo-β-lactamase
[6] = Bacteroides fragilis, alone, B. fragilis 262, CfiA, read-out: MIC alone
[7] = Bacteroides fragilis, alone, B. fragilis 460, CfiA, read-out: MIC alone

Row | Compound | IC50 [1, 4] | further results
1 | CC1(C)[C@H](C(=O)O)N(C(=O)[C@@H](CS)Cc2ccccc2)C[S+]1[O-] (single isomer, unassigned) [Example 26] | < 1 µM | 
2 | CC1(C)[C@H](C(=O)O)N(C(=O)[C@@H](CS)Cc2ccccc2)C[S+]1[O-] (single isomer, unassigned) [Example 27] |  | activity against Xanthomonas maltophilia L-1 metallo-β-lactamase [2]: weak but significant activity; activity against Bacillus cereus II metallo-β-lactamase [3]: weak but significant activity
3 | CC1(C)SCN(C(=O)C(CS)Cc2ccccc2)[C@H]1C(=O)O (stereo partly drawn) [Example 2, 3-[2'(RS)-benzyl-3'-mereaptopropionyl]-4(S)-carboxy-5,5-dimethylthiazolidine] | < 1 µM | 
4 | CC(CS)C(=O)N1CCC[C@@H]1C(=O)O (stereo partly drawn) [Example 4, N-[3'-Mercapto-2'(RS)-methylpropionyl]-D-proline] |  | IC50 [1, 5]: < 500 µM
5 | C[C@H](CS)C(=O)N1CCC[C@@H]1C(=O)O [Example 6, N-(3'-mercapto-2'(S)-methylpropionyl)-D-proline] |  | IC50 [1, 5]: < 500 µM
6 | CC1(C)SCN(C(=O)CCS)[C@H]1C(=O)O [Example 8, 3-[3'-Mercaptopropionyl]-4(S)-carboxy-5,5-dimethylthiazolidine] | < 500 µM | 
7 | CC1(C)SCN(C(=O)C(CS)Cc2ccccc2)[C@@H]1C(=O)O (stereo partly drawn) [Example 12, 3-[2'(RS)-benzyl-3'-mercaptopropionyl]-4(R)-carboxy-5,5-dimethylthiazolidine] | < 500 µM | 
8 | CC(CS)C(=O)N1CSC(C)(C)[C@@H]1C(=O)O (stereo partly drawn) [Example 14, 3-[3'-Mercapto-2'(S)-methylpropionyl]-4(S)-carboxy-5,5-dimethylthiazolidine] | < 500 µM | 
9 | CC1(C)SCN(C(=O)C(CS)Cc2ccccc2)C1C(=O)O [Example 19, 3-[2'(R)-benzyl-3'-mercaptopropionyl]-4(S)-carboxy-5,5-dimethylthiazolidine] |  | activity against Xanthomonas maltophilia L-1 metallo-β-lactamase [2]: weak but significant activity; activity against Bacillus cereus II metallo-β-lactamase [3]: weak but significant activity
10 | CC(CS)C(=O)N1CSC(C)(C)C1C(=O)O [Example 21, 3-[3'-Mercapto-2'(R)-methylpropionyl]-4(S)-carboxy-5,5-dimethylthiazolidine] |  | activity against Xanthomonas maltophilia L-1 metallo-β-lactamase [2]: weak but significant activity; activity against Bacillus cereus II metallo-β-lactamase [3]: weak but significant activity
11 | CC(CS)C(=O)N1CSC(C)(C)C1C(=O)O [Example 23, 3-[Mercapto-2'(S)-methylpropionyl]-4(R)-carboxy-5,5-dimethylthiazolidine] | < 500 µM | 
12 | C[C@@H](O)[C@H]1C(=O)N2C(C(=O)O)=C(SCCN=CN)C[C@H]12 [Imipenem] |  | MIC (B. fragilis 262; [6]): 4 µg/mL; MIC (B. fragilis 460; [7]): 16 µg/mL
13 | C[C@@H](O)[C@H]1C(=O)N2C(C(=O)O)=C(S[C@@H]3CN[C@H](C(=O)N(C)C)C3)[C@H](C)[C@H]12 [Meropenem] |  | MIC (B. fragilis 262; Bacteroides fragilis, 262, read-out: MIC alone): 128 µg/mL; MIC (B. fragilis 460; Bacteroides fragilis, 460, read-out: MIC alone): 128 µg/mL
14 | C[C@H](CS)C(=O)N1CCC[C@H]1C(=O)O [captopril, N-(3'-mercapto-2'(S)-methylpropionyl)-L-proline, reference compound] |  | activity against Xanthomonas maltophilia L-1 metallo-β-lactamase [2]: weak but significant activity; activity against Bacillus cereus II metallo-β-lactamase [3]: weak but significant activity

Continued, in another order:

Row | IC50 [1, 4] | Compound | further results
15 | < 500 µM | O=C(O)[C@H]1CSCN1C(=O)C(CS)Cc1ccccc1 (single isomer, unassigned) [Example 30, 3-[2'(R or S)-benzyl-3'-mercaptopropionyl]-4(S)-carboxythiazolidine] | 
16 | < 500 µM | O=C(O)[C@H]1CSCN1C(=O)C(CS)Cc1ccccc1 (single isomer, unassigned) [Example 31, 3-[2'(S or R)-benzyl-3'-mercaptopropionyl]-4(S)-carboxythiazolidine] | 
17 | < 500 µM | O=C(O)[C@H]1CCCN1C(=O)C(CS)Cc1ccccc1 (stereo partly drawn) [Example 16, N-[2'(PS)-benzyl-3'-mercaptopropionyl]-D-proline] | 
18 | < 500 µM | O=C(O)[C@H]1CSCN1C(=O)C(CS)Cc1ccccc1 (stereo partly drawn) [Example 18, 3-[2'(RS)-benzyl-3'-mercaptopropionyl]-4(S)-carboxythiazolidine] | 
19 | < 1 µM | CC1(C)SCN(C(=O)[C@@H](CS)Cc2ccccc2)[C@H]1C(=O)O [Example 20, 3-[2'(S)-benzyl-3'-mercaptopropionyl]-4(S)-carboxy-5,5-dimethylthiazolidine] | MIC (B. fragilis 262; [6]): > 512 µg/mL; MIC (B. fragilis 460; [7]): > 512 µg/mL
20 | < 500 µM | O=C(O)[C@@H]1CCCN1C(=O)C(CS)Cc1ccccc1 (stereo partly drawn) [Example 25, N-[2'(RS)-benzyl-3'-mercaptopropionyl]-L-proline] | 
21 | < 500 µM | CC1(C)SCN(C(=O)[C@@H](CS)Cc2ccccc2)[C@@H]1C(=O)O [Example 28, 3-[2'(S)-benzyl-3'-mercaptopropionyl]-4(R)-carboxy-5,5-dimethylthiazolidine] | 
22 | < 500 µM | CC1(C)SCN(C(=O)[C@H](CS)Cc2ccccc2)[C@@H]1C(=O)O [Example 29, 3-[2'(R)-benzyl-3'-mercaptopropionyl]-4(R)-carboxy-5,5-dimethylthiazolidine] | 
23 | < 500 µM | CC1(C)SCN(C(=O)C(CS)CCc2ccccc2)[C@H]1C(=O)O (stereo partly drawn) [Example 32, 3-[2'(RS)-mercaptomethyl-4'-phenylbutanoyl]-4(S)-carboxy-5,5-dimethylthiazolidine] | 
24 | < 500 µM | O=C(O)[C@H]1CSCN1C(=O)C(CS)CCCc1ccccc1 (stereo partly drawn) [Example 33, 3-[2'(RS)-mercaptomethyl-5'-phenylpentanoyl]-4(S)-carboxythiazolidine] | 
